Measured values from patent US12083093B2, “Composition for preventing or treating cellular senescence-related diseases comprising salinomycin as effective component” (RESEARCH COOPERATION FOUNDATION OF YEUNGNAM UNIVERSITY, priority 2018, dated 2024).

Columns and labels:
[1] = test system: replicative senescent vascular endothelial cells (HUVEC); assay: SAβG activity staining, replicative senescent HUVEC; type: cell-based, human; details: salinomycin treatment, 4 days; FIG. 4A, 4B
Description: (§1) After dispensing 2×10^5 cells in a 100 mm culture dish, they were cultured in a 37° C., 5% CO2 incubator. When the cells grew to 80-90% in the culture dish, the cells were removed by treatment with trypsin-EDTA, and the number of cells was measured, and the cell population doubling time (PDT) was measured.
(§2) By successively subculturing the cells in the same process as described above, replication aging was induced. PDT of young fibroblasts was 36 hours, PDT of replicative senescent fibroblasts was 12 days, PDT of young vascular endothelial cells was 24 hours, and PDT of replicative senescent vascular endothelial cells was 7 days.
(§3) After each sample was dissolved in DMSO, young cells, replicative senescent cells and senescent cells in which premature aging was induced by treating with doxorubicin were treated with 100 nM salinomycin, 100 nM rapamycin, 100 nM ABT263. After incubation for 4 days in a 37° C., 5% CO2 incubator, the degree of cell survival was confirmed by CCK-8 analysis, the degree of cellular aging was confirmed by senescence-associated β-galactosidase (SAβG) staining, p53 and p16 protein expression analysis.
The cells were washed with 1× phosphate buffer solution, and fixed with a phosphate buffer solution containing 3.7% (v/v) paraformaldehyde. […]

[2] = test system: premature senescent vascular endothelial cells (HUVEC) by doxorubicin; assay: CCK-8 cell survival, doxorubicin-induced premature senescent HUVEC; type: cell-based, human; details: 100 nM, 4 days; compared to DMSO-treated group; FIG. 3C
Description: (§4) Each cell was treated in a serum-free culture solution containing doxorubicin (0.5 μM) for 4 hours. After washing the cells with a serum-free culture solution, the cells were cultured for 4 days in a culture solution containing 10% FBS, and then cellular aging was confirmed by measuring the level of senescence by staining with senescence-associated beta galactosidase.
as §3
Young cells (1×10^3 cells/well) or senescent cells (2×10^3 cells/well) were dispensed into a 96-well plate, and cultured overnight in a 37° C., 5% CO2 incubator. Salinomycin, ABT263 and rapamycin were treated at each concentration, and then incubated for 4 days in a 37° C., 5% CO2 incubator. […] Then, the absorbance was measured at 450 nm using a Microplate reader.
The degree of cell survival was expressed as a relative value for the absorbance of the control group treated with only DMSO as 100%. […]

[3] = test system: premature senescent human fibroblasts induced by doxorubicin (HDF); assay: SAβG activity staining, doxorubicin-induced premature senescent human fibroblasts; type: cell-based; details: 100 nM, 4 days; compared to DMSO-treated group; FIG. 1A, 1B
Description: as §4, §3
The cells were washed with 1× phosphate buffer solution, and fixed with a phosphate buffer solution containing 3.7% (v/v) paraformaldehyde. After adding 1 mg/ml 5-bromo-4-chloro-3-indolyl-β-D-galactoside, 40 mM citric acid-sodium phosphate (pH 6.0), 5 mM potassium ferricyanide, 5 mM potassium ferrocyanide, 150 mM NaCl, and 2 mM MgCl2 solution, it was reacted at 37° C. for 18 hours. It was stained with eosin as a control stain and cells stained blue in the cytoplasm were identified using an optical microscope. […]

[4] = test system: replicative senescent vascular endothelial cells (HUVEC); assay: CCK-8 cell survival, replicative senescent HUVEC; type: cell-based, human; details: according to concentration of salinomycin; FIG. 4C
Description: as §1, §2
After each sample was dissolved in DMSO, young cells, replicative senescent cells and senescent cells in which premature aging was induced by treating with doxorubicin were treated with 100 nM salinomycin, 100 nM rapamycin, 100 nM ABT263. […]
Young cells (1×10^3 cells/well) or senescent cells (2×10^3 cells/well) were dispensed into a 96-well plate, and cultured overnight in a 37° C., 5% CO2 incubator. […] Then, the absorbance was measured at 450 nm using a Microplate reader.
The degree of cell survival was expressed as a relative value for the absorbance of the control group treated with only DMSO as 100%.

`CC[C@@H](C(=O)[C@@H](C)[C@@H](O)[C@H](C)[C@@H]1O[C@@H]([C@@H](CC)C(=O)O)CC[C@@H]1C)[C@H]1O[C@]2(C=C[C@@H](O)[C@]3(CC[C@@](C)([C@H]4CC[C@](O)(CC)[C@H](C)O4)O3)O2)[C@H](C)C[C@@H]1C` [salinomycin] was tested, and the SAβG activity [1] was “decreased”, the “cell survival (CCK-8)” value [2] was “no difference” and the SAβG activity [3] was “significantly reduced”. The “cell survival (CCK-8)” value [4] was “did not affect”.
